According to PMC4434909, “In vitro properties of designed antimicrobial peptides that exhibit potent antipneumococcal activity and produces synergism in combination with penicillin” (Scientific Reports, 2015):
Where no end group is shown, it is not given here.

Legend:
[1] = system: penicillin-resistant Streptococcus pneumoniae (PRSP); type: cell-based; conditions: for MIC, PRSP: MIC range over 20 PRSP isolates, CLSI broth microdilution, CAMHB with 5% laked horse blood, 18–24 hrs 37°C 5% CO2, peptides 1.96–250 μg/ml, three independent experiments; for EP %, PRSP: effective percentage: proportion of isolates inhibited within the MIC range
Description: (§1) All bacterial strains were obtained from Department of Medical Microbiology, University of Malaya. Clinical isolates were previously obtained from University of Malaya Medical Centre and maintained in the laboratory. Sheep blood agar was used for pneumococcal cultivation purpose. Nutrient agar was used for cultivating E. coli ATCC 25922, S. aureus ATCC 25923, and P. aeruginosa ATCC 15442, Acinetobacter baumanii ATCC 15308, and one clinical isolate for each MRSA, E. cloacae, Citrobacter spp., and K. pneumoniae. For antimicrobial testing, Mueller-Hinton agar (MHA) and cationically-adjusted MHB (CAMHB) were prepared according to the Clinical and Laboratory Standard Institute guidelines. MHA for S. pneumoniae was supplemented with 5% (v/v) defibrinated sheep blood and 5% laked horse blood for CAMHB. All bacterial cultures were stored in multiple vials in brain heart infusion broth supplemented with 10% (v/v) glycerol at −80°C to avoid repeated freeze-thawed cycles on the cells. All freeze-stocked strains were passaged twice prior to experimentation.
(§2) Procedures were performed to determine the MIC of peptides according to the CLSI guidelines[21] against 60 pneumococcal isolates which consisted of 20 isolates each for PRSP, PISP, and PSSP. Strains were grown for 18–24 hrs at 37°C under 5% CO2. Direct suspension of the colonies were made in CAMHB and adjusted to OD625 0.08–0.1 which corresponds to 1 ~ 2 × 10^8 CFU/ml followed by serial ten-fold dilutions to give 1 × 10^6 CFU/ml. Fifty microliters of bacterial suspension was then aliquoted to 96-well round bottom microtiter plates containing equal volume of serially diluted peptides to give final concentrations of peptides encompassing the range of 1.96–250 μg/ml. […] The plates were incubated for 18–24 hrs at 37°C under 5% CO2. MIC was read as the concentration of peptide producing complete inhibition on the visible growth of the test organism. Results were pooled from three independent experiments. MIC range was defined as the range of concentrations where the peptides produce detectable antimicrobial activity. Effective percentage (EP) was the proportion of pneumococcal isolates inhibited within the MIC range. Since the isolates tested were obtained prior to 2008 where major revision in antibiotic susceptibility breakpoints were introduced, thus the pneumococci were defined according to the PEN susceptibility breakpoint (prior 2008) which corresponds to the PEN (oral penicillin V) breakpoint of the revised criteria.

[2] = system: penicillin-susceptible S. pneumoniae (PSSP); type: cell-based, Streptococcus pneumoniae; conditions: for MIC, PSSP: MIC range over 20 PSSP isolates, CLSI broth microdilution, CAMHB with 5% laked horse blood, 18–24 hrs 37°C 5% CO2, peptides 1.96–250 μg/ml, three independent experiments; for EP %, PSSP: effective percentage: proportion of isolates inhibited within the MIC range
Description: as §1, §2

[3] = system: penicillin-intermediate S. pneumoniae (PISP); type: cell-based, Streptococcus pneumoniae; conditions: for MIC, PISP: MIC range over 20 PISP isolates, CLSI broth microdilution, CAMHB with 5% laked horse blood, 18–24 hrs 37°C 5% CO2, peptides 1.96–250 μg/ml, three independent experiments; for EP %, PISP: effective percentage: proportion of isolates inhibited within the MIC range
Description: as §1, §2

S. pneumoniae = type: cell-based, Streptococcus pneumoniae; conditions: for Overall EP: proportion of the 60 pneumococcal isolates inhibited within the MIC range
Description: as §1, §2

E. cloaceae = type: cell-based, E. cloacae; conditions: Gram-negative, clinical isolate; broth microdilution, CAMHB, peptides 1.96–250 μg/ml
Description: as §1, §2
(§3) The broad spectrum antibacterial activity of the peptides against a panel of eight clinically important bacteria was also determined, this includes S. aureus ATCC 25923, E. coli ATCC 25922, P. aeruginosa ATCC 15442, A. baumanii ATCC 15308, and one clinical isolate each for MRSA, E. cloacae, Citrobacter spp., and K. pneumoniae.

S. aureus ATCC 25923 = type: cell-based; conditions: ATCC 25923
Description: as §1, §2, §3

Citrobacter spp. = type: cell-based; conditions: Gram-negative, clinical isolate; broth microdilution, CAMHB, peptides 1.96–250 μg/ml
Description: as §1, §2, §3

P. aeruginosa ATCC 15442 = type: cell-based; conditions: ATCC 15442
Description: as §1, §2, §3

E. coli ATCC 25922 = type: cell-based; conditions: ATCC 25922
Description: as §1, §2, §3

NL20 cell line = assay: Cytotoxicity against human cell lines (CellTiter 96 AQueous); type: cell-based
Description: (§4) Both the NL20 human lung bronchial normal epithelial cell line and the A549 human lung alveolar adenocarcinoma epithelial cell line were used for cell cytotoxicity tests. Besides investigating the cytotoxicity of peptides, differences in cell viability between the two cell lines can be used to evaluate the cell line selectivity and to assess potential anticancer potential of the peptides. NL20 cell line was grown in Ham's F12 medium and A549 cell line was grown in Roswell Park Memorial Institute medium. Both media were supplemented with fetal bovine serum to 10% (v/v) as growth medium or 2% (v/v) as maintenance medium in cell cytotoxicity testing. The assay was performed as described by Lee et al.[26]. NL20 cells was seeded overnight at 3 × 10^4 cells/well in 96-well cell culture-treated flat bottom microtiter plate and treated with serial dilutions of peptide at a final concentration of 1.95–250 μg/ml. PEN was tested from 0.03–4 μg/ml, the same range used to classify the susceptibility of pneumococcal isolates in this study. Test using A549 cells followed the same procedures with 1 × 10^4 cells/well. Plates were incubated at 37°C under 5% CO2 for 24, 48, and 72 hrs. Cell viability was detected by using CellTiter 96® AQueous Non-Radioactive Cell Proliferation assay (Promega, USA) and the colorimetric changes were read with Glomax multidetection system (Promega, USA) at OD 490 nm. Results were pooled from three independent experiments and expressed as mean ± SD. […] Imax was the percentage of cell viable treated with peptides/PEN at the maximum concentration as defined throughout this study (all peptides 250 μg/ml, PEN 4 μg/ml).

A549 cell line = assay: as above; type: cell-based
Description: as §4

[4] = system: multiple gram-positive and gram-negative bacteria; type: cell-based; conditions: range: DM3 against seven bacteria; DM4 and DM5 apart from higher MICs against E. cloaceae, K. pneumoniae, S. aureus
Description: as §1, §2, §3

Substance	MIC, PRSP [1] [µg/mL]	EP %, PRSP [1]	MIC, PSSP [2] [µg/mL]	EP %, PSSP [2]	MIC, PISP [3] [µg/mL]	EP %, PISP [3]	Overall MIC (S. pneumoniae) [µg/mL]	Overall EP (S. pneumoniae) [%]	MIC, E. cloaceae (E. cloaceae) [µg/mL]	MIC, S. aureus ATCC 25923 (S. aureus ATCC 25923) [µg/mL]	MIC, Citrobacter spp. (Citrobacter spp.) [µg/mL]	MIC, P. aeruginosa ATCC 15442 (P. aeruginosa ATCC 15442) [µg/mL]	MIC, E. coli ATCC 25922 (E. coli ATCC 25922) [µg/mL]	Imax, NL20 cell line, 24 hrs (NL20 cell line) [%]	Imax, NL20 cell line, 48 hrs (NL20 cell line) [%]	Imax, NL20 cell line, 72 hrs (NL20 cell line) [%]	IC50, NL20 cell line, 24 hrs (NL20 cell line; 24 h) [µg/mL]	IC50, NL20 cell line, 48 hrs (NL20 cell line; 48 h) [µg/mL]	IC50, NL20 cell line, 72 hrs (NL20 cell line; 72 h) [µg/mL]	IC50, A549 cell line, 24 hrs (A549 cell line) [µg/mL]	also measured
GLFDIWAWWRWRR-NH2 [DM2]	15.63 to 250	(100.0) %	15.63 to 250	(100.0) %	7.81 to 250	(100.0) %	7.81 to 250	100.0	>250	31.3	62.5	>250	250	64.3 ± 7.0	53.3 ± 9.1	46.8 ± 4.0	>250	>250	241.5 ± 9.0	> 250	IC50, A549 cell line, 48 hrs (A549 cell line): 197.7 µg/mL; IC50, A549 cell line, 72 hrs (A549 cell line): 165.0 µg/mL
GLFDIWKKLRWRR-NH2 [DM5]	31.3 to 125	(100.0) %	15.63 to 125	(100.0) %	15.63 to 125	(100.0) %	15.63 to 125	100.0	125	125	31.3	31.3	31.3	7.3 ± 2.4	8.3 ± 4.2	9.7 ± 5.4	179.2 ± 3.8	188.2 ± 4.9	191.7 ± 3.5	97.0 ± 9.8	antibacterial MIC range over the bacterial panel [4]: 31.3 to 62.5 µg/mL; IC50 of NL20 cells higher than A549 cells by, 24 hrs (NL20 cell line; 24 h): 82.2 µg/mL; IC50 of NL20 cells higher than A549 cells by, 48 hrs (NL20 cell line; 48 h): 81.9 µg/mL; IC50 of NL20 cells higher than A549 cells by, 72 hrs (NL20 cell line; 72 h): 90.0 µg/mL; IC50, A549 cell line, 48 hrs (A549 cell line): 106.3 ± 15.7 µg/mL; IC50, A549 cell line, 72 hrs (A549 cell line): 101.7 ± 9.5 µg/mL
